Our source for the IC50 and Ki values is US20040097594A1 (priority 1998, published 2004).

Like-named read-outs stand apart in the source and are kept apart here.

The test system of assay [1] is HIV-1 (strain IIIB). Description: microbe, parasite or virus in culture. Format: cell-based. Particulars: Human immunodeficiency virus 1, 120 h; MT4 cells infected with HIV-1 strain IIIB, 5 days; lower line of each compound's entry; read-out: IC50 (MT-4 cells).
In assay [2] the target is HIV-1 protease (Human immunodeficiency virus type 1 group M subtype B, UniProt P04585). As to the kind of experiment: biochemical.
[3] abbreviates: HIV-1 protease, upper line of each compound's entry, read-out: Ki (enzyme).

A word on the IC50: it is the concentration at which inhibition is half-maximal. As a reminder, the Ki is the equilibrium dissociation constant of an inhibitor or competing ligand from its target. As to `O=C(NC(Cc1ccccc1)C(O)CN(OC1CCCC1)S(=O)(=O)c1cccc(NCC(=O)N2CCOCC2)c1)OC1COC2OCCC12` [Compound 87, (3R,3aS,6aR)hexahydrofuro[2,3-b]furan-3-yl N-(1S,2R)-1-benzyl-3-[(cyclopentyloxy)(3-[(2-morpholino-2-oxoethyl)amino]phenylsulfonyl)amino]-2-hydroxypropylcarbamate and (3S,3aR,6aS)hexahydrofuro[2,3-b]furan-3-yl N-(1S,2R)-1-benzyl-3-[(cyclopentyloxy)(3-[(2-morpholino-2-oxoethyl)amino]phenylsulfonyl)amino]-2-hydroxypropylcarbamate], in assay [1], the half-inhibitory concentration (IC50) is no more than 100 nM. The inhibition constant Ki in assay [2] (setting [3]) is less than 1 nM.

As to `O=C(N[C@@H](Cc1ccccc1)[C@H](O)CN(OC1CCCC1)S(=O)(=O)c1ccc2nccnc2c1)O[C@H]1CO[C@H]2OCC[C@H]21` [Compound 90], in assay [1], the IC50 was no more than 100 nM. Further, in assay [2] (setting [3]), the Ki was less than 1 nM.

Take `O=C(N[C@@H](Cc1ccccc1)[C@H](O)CN(OC1CCCC1)S(=O)(=O)c1cccc(OCCO)c1)O[C@H]1CO[C@H]2OCC[C@H]21` [Compound 97, (3R,3aS,6aR)hexahydrofuro[2,3-b]furan-3-yl N-[(1S,2R)-1-benzyl-3-((cyclopentyloxy) [3-(2-hydroxyethoxy)phenyl]sulfonylamino)-2-hydroxypropyl]carbamate]: the IC50 in assay [1] was no more than 100 nM. Moreover, in assay [2] (setting [3]), the inhibitory constant (Ki) was less than 1 nM.

In the case of `Nc1cccc(S(=O)(=O)N(C[C@@H](OP(=O)(O)O)[C@H](Cc2ccccc2)NC(=O)O[C@H]2CO[C@H]3OCC[C@H]32)OC2CCCC2)c1` [Compound 100, Phosphate ester of (3R,3aS,6aR)hexahydrofuro[2,3-b]furan-3-yl N-(1S,2R)-3-[[(3-aminophenyl)sulfonyl](cyclopentyloxy)amino]-1-benzyl-2-hydroxypropylcarbamate], the IC50 in assay [1] fell in the range of 100 to 500 nM. Also, the Ki in assay [2] (setting [3]) lay within 10 to 100 nM.

Take `COC(=O)Nc1n[nH]c2ccc(S(=O)(=O)N(C[C@@H](O)[C@H](Cc3ccccc3)NC(=O)OC3COCOC3)OC3CCCC3)cc12` [Compound 104, 1,3-Dioxan-5-yl-N-(1S,2R)-1-benzyl-3-[(cyclopentyloxy)(3-(carbomethoxyamino)-indazole-5-ylsulfonyl)amino]-2-hydroxypropylcarbamate]: the IC50 in assay [1] is no more than 100 nM. The Ki in assay [2] (setting [3]) is less than 1 nM.

In the case of `CC(C)(C)OC(=O)N[C@@H](Cc1ccccc1)[C@H](O)CN(OC1CCCC1)S(=O)(=O)c1ccc2[nH]c(NC(=O)CCCl)nc2c1` [Compound 105, Tert-butyl N-(1S,2R)-1-benzyl-3-[(cyclopentyloxy)(2-[(3-chloropropionyl)amino]-1H-benzimidazol-5-ylsulfonyl)amino]-2-hydroxypropylcarbamate], the half-maximal inhibitory concentration (IC50) in assay [1] was no more than 100 nM. Further, the Ki in assay [2] (setting [3]) was less than 1 nM.

On to `CC(C)(C)OC(=O)N[C@@H](Cc1ccccc1)[C@H](O)CN(OC1CCCC1)S(=O)(=O)c1ccc2nc(N)[nH]c2c1` [Compound 106, Tert-butyl N-(1S,2R)-1-benzyl-3-[(cyclopentyloxy)(2-amino-1H-benzimidazol-5-ylsulfonyl)amino]-2-hydroxypropylcarbamate], for which, in assay [1], the concentration for half-maximal inhibition (IC50) fell in the range of 100 to 500 nM. In addition, the Ki in assay [2] (setting [3]) was less than 1 nM.

Regarding `Nc1n[nH]c2ccc(S(=O)(=O)N(C[C@@H](O)[C@H](Cc3ccccc3)NC(=O)O[C@H]3CO[C@H]4OCC[C@H]43)OC3CCCC3)cc12` [Compound 108, (3R,3aS,6aR)Hexahydrofuro[2,3-b]furan-3-yl N-(1S,2R)-1-benzyl-3-[(cyclopentyloxy) (3-aminoindazole-5-ylsulfonyl)amino]-2-hydroxypropylcarbamate], the IC50 in assay [1] was greater than 500 nM. The Ki in assay [2] (setting [3]) was 10 to 100 nM.

On to `COCOc1ccc(S(=O)(=O)N(C[C@@H](O)[C@H](Cc2ccccc2)NC(=O)OC(C)(C)C)OC2CCCC2)cc1` [Compound 109, tert-butyl N-((1S,2R)-1-benzyl-3-(cyclopentyloxy)[(4-methoxymethoxyphenyl)sulfonyl]amino-2-hydroxypropyl)carbamate], for which the concentration for half-maximal inhibition (IC50) in assay [1] was no less than 100 nM. In assay [2] (setting [3]), the Ki lay within 10 to 100 nM.

For the compound `CC(C)(C)ON(C[C@@H](O)[C@H](Cc1ccccc1)NC(=O)O[C@H]1CCOC1)S(=O)(=O)c1ccccc1` [Compound 111, (3S) Tetrahydro-3-furanyl-N-(1S,2R)-1-benzyl-3-(tertbutyloxy)[(phenyl)sulfonyl]amino-2-hydroxypropylcarbamate], in assay [1], the concentration for half-maximal inhibition (IC50) was greater than 1000 nM. For the same compound, in assay [2] (setting [3]), the Ki lay in the range of 1 to 10 nM.

For `CC(=O)Nc1nc2ccc(S(=O)(=O)N(C[C@@H](O)[C@H](Cc3ccccc3)NC(=O)OC3COCOC3)OC3CCCC3)cc2s1` [Compound 114], the IC50 in assay [1] was no more than 100 nM. Further, in assay [2] (setting [3]), the Ki is less than 1 nM.

In the case of `COc1ccc(S(=O)(=O)N(C[C@@H](O)[C@H](Cc2ccccc2)NC(=O)C(C)CS(C)(=O)=O)OC2CCCC2)cc1` (stereo partly drawn) [Compound 115, 1N-(3-Methylsulfonylisobutyryl)-(1S,2R)-1-benzyl-3-(cyclopentyloxy)[4-methoxyphenylsulfonyl]amino-2-hydroxypropylamine], the IC50 in assay [1] is 500 to 1000 nM. For the same compound, in assay [2] (setting [3]), the inhibitory constant (Ki) was greater than 100 nM.

With `COc1ccc(S(=O)(=O)N(C[C@@H](O)[C@H](Cc2ccccc2)NC(=O)O[C@H]2CO[C@@H]3OCC[C@@H]32)OC2CCCC2)cc1` [Compound 116], the IC50 in assay [1] fell in the range of 500 to 1000 nM. The Ki in assay [2] (setting [3]) is greater than 100 nM.

As for `COc1ccc(S(=O)(=O)N(C[C@@H](O)[C@H](Cc2ccccc2)NC(=O)O[C@@H]2CO[C@H]3OCC[C@H]32)OC2CCCC2)cc1` [Compound 117], the IC50 in assay [1] lay in the range of 500 to 1000 nM. Further, in assay [2] (setting [3]), the Ki was greater than 100 nM.

Turning to `CC(C)ON(CC(O)C(Cc1ccccc1)NC(=O)OC1COC2OCCC12)S(=O)(=O)c1ccc2nc(NS(C)(=O)=O)n(Cc3ccccc3)c2c1` (centres unmarked) [Compound 118], the half-inhibitory concentration (IC50) in assay [1] lay in the range of 500 to 1000 nM. Also, the inhibitory constant (Ki) in assay [2] (setting [3]) was greater than 100 nM.

Turning to `CNc1cccc(S(=O)(=O)N(C[C@@H](OP(=O)(O)O)[C@H](Cc2ccccc2)NC(=O)O[C@H]2CO[C@H]3OCC[C@H]32)OC2CCCC2)c1` [Compound 119, Phosphate ester of (3R,3aS,6aR)hexahydrofuro[2,3-b]furan-3-yl N-(1S,2R)-3-[[(3-N-methylaminophenyl)sulfonyl](cyclopentyloxy)amino]-1-benzyl-2-hydroxypropylcarbamate], in assay [1], the IC50 is greater than 1000 nM. Also, the Ki in assay [2] (setting [3]) is greater than 100 nM.

Consider `CNC(=O)NCCNc1cccc(S(=O)(=O)N(CC(O)C(Cc2ccccc2)NC(=O)OC2COC3OCCC23)OC2CCCC2)c1` [Compound 121, (3R,3aS,6aR)hexahydrofuro[2,3-b]furan-3-yl N-(1S,2R)-1-benzyl-3-[(cyclopentyloxy)(3-[(2-[(methylamino)carbonyl]aminoethyl)amino]phenylsulfonyl)amino]-2-hydroxypropylcarbamate and (3S,3aR,6aS)hexahydrofuro[2,3-b]furan-3-yl N-(1S,2R)-1-benzyl-3-[(cyclopentyloxy)(3-[(2-[(methylamino)carbonyl]aminoethyl)amino]phenylsulfonyl)amino]-2-hydroxypropylcarbamate], for which the 50% inhibitory concentration (IC50) in assay [1] was in the range of 100 to 500 nM. Moreover, in assay [2] (setting [3]), the Ki is less than 1 nM.

`COc1cccc(S(=O)(=O)N(C[C@@H](O)[C@H](Cc2ccccc2)NC(=O)O[C@H]2CO[C@H]3OCC[C@H]32)OC2CCCC2)c1` [Compound 123, (3R,3aS,6aR)hexahydrofuro[2,3-b]furan-3-yl N-[(1S,2R)-1-benzyl-3-((cyclopentyloxy)[(3-methoxyphenyl)sulfonyl]amino)-2-hydroxypropyl]carbamate]: the IC50 in assay [1] is no more than 100 nM. Moreover, the inhibitory constant (Ki) in assay [2] (setting [3]) is less than 1 nM.

Turning to `Nc1nc2ccc(S(=O)(=O)N(C[C@@H](O)[C@H](Cc3ccccc3)NC(=O)OC3COCOC3)OC3CCCC3)cc2s1` [Compound 125], the half-inhibitory concentration (IC50) in assay [1] was no more than 100 nM. Moreover, the inhibition constant Ki in assay [2] (setting [3]) was less than 1 nM.

For `CC(C)ON(C[C@@H](O)[C@H](Cc1ccccc1)NC(=O)O[C@H]1CO[C@H]2OCC[C@H]21)S(=O)(=O)c1cccc(N(C)C(=O)OC(C)(C)C)c1` [Compound 126], the IC50 in assay [1] is greater than 1000 nM. Moreover, the inhibition constant Ki in assay [2] (setting [3]) was greater than 100 nM.

As to `CNc1cccc(S(=O)(=O)N(C[C@@H](O)[C@H](Cc2ccccc2)NC(=O)O[C@H]2CO[C@H]3OCC[C@H]32)OC(C)C)c1` [Compound 127], the half-inhibitory concentration (IC50) in assay [1] is no more than 100 nM. The Ki in assay [2] (setting [3]) was less than 1 nM.

For `CN(C(=O)OC(C)(C)C)c1cccc(S(=O)(=O)N(C[C@@H](O)[C@H](Cc2ccccc2)NC(=O)O[C@H]2CO[C@H]3OCC[C@H]32)OC2CCCC2)c1` [Compound 128], the half-inhibitory concentration (IC50) in assay [1] is greater than 1000 nM. Besides, in assay [2] (setting [3]), the Ki is greater than 100 nM.

On to `COC(=O)Nc1nc2cc(S(=O)(=O)N(C[C@@H](O)[C@H](Cc3ccccc3)NC(=O)OC(C)(C)C)OC3CCCC3)ccc2[nH]1` [Compound 130, tert-Butyl-N-((1S,2R)-1-benzyl-3-(cyclopentyloxy)(2-[(methoxycarbonyl)amino]benzimidazol-5-ylsulfonyl)amino-2-hydroxypropyl)carbamate], for which, in assay [1], the IC50 was no more than 100 nM. Also, the inhibitory constant (Ki) in assay [2] (setting [3]) was less than 1 nM.

`CC(C)(C)OC(=O)N[C@@H](Cc1ccccc1)[C@H](O)CN(OC1CCCC1)S(=O)(=O)c1ccc2[nH]c(=O)[nH]c2c1` [Compound 131, tert-Butyl-N-((1S,2R)-1-benzyl-3-(cyclopentyloxy)(2-oxybenzimidazol-5-ylsulfonyl)amino-2-hydroxypropyl)carbamate]: in assay [1], the half-maximal inhibitory concentration (IC50) was no more than 100 nM. Also, in assay [2] (setting [3]), the Ki was less than 1 nM.

For `COc1ccc(S(=O)(=O)N(C[C@@H](O)[C@H](Cc2ccccc2)NC(=O)OC2CO[C@H]3OCC[C@@H]23)OC2CCCCC2)cc1` (stereo partly drawn) [Compound 134, (3R,3aS,6aR)hexahydrofuro[2,3-b]furan-3-yl N-((1S,2R)-1-benzyl-3-(cyclohexyloxy)[(4-methoxyphenyl)sulfonyl]amino-2-hydroxypropyl)carbamate], the IC50 in assay [1] was no more than 100 nM. Further, the Ki in assay [2] is less than 1 nM.
